Measurements reported in the supplement of paper PMC10627819.

How the values were obtained:
B. subtilis 168 [1] = experiment: fitness (endpoint OD595 vs no drug) (fraction); higher = more growth
Summary of the method: (§1)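 In 384-well plates at 37 °C, cultures began at OD595 0.01 in 30 µl, with 55 µl used for S. pneumoniae. OD595 readings every 30 min for 14 h were corrected by the first reading. Fitness divides the stationary-phase transition optical density by the robust mean of no-drug control wells. The result is capped at 1.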

S. pneumoniae D39V [2] = experiment: as above
Summary of the method: as §1

B. subtilis 168 [3] = experiment: Bliss interaction score (quartile over a dose matrix) (fitness difference); higher = more antagonism (negative = synergy)
Summary of the method: (§2)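 Growth was read as OD595 when cultures entered stationary phase, and each value was divided by the plate's robust no-drug mean and capped at 1. This normalised ratio is the fitness value, and fitness for each single drug came from the combination data. The Bliss score subtracts the expected fitness, taken as the product, from the observed fitness and is given as quartiles across technical, biological and donor/recipient replicates.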

S. aureus Newman = experiment: as above
Summary of the method: as §2

S. aureus DSM 20231 = experiment: as above
Summary of the method: as §2

S. pneumoniae D39V [4] = experiment: as above
Summary of the method: as §2
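Throughout, for Bliss interaction score (quartile over a dose matrix): first quartile when negative (synergy) and third quartile when positive (antagonism).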
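Throughout, for fitness (endpoint OD595 vs no drug): OD595 on entry to stationary phase over no-drug wells; at most 1.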

CN(C)C(=O)C(CCN1CCC(O)(c2ccc(Cl)cc2)CC1)(c1ccccc1)c1ccccc1 [Loperamide] + CCC(C)C1C(=O)NC(=C)C(=O)NC(C(=O)NC(CSCC(C(=O)N1)NC(=O)/C(=C/C)/NC(=O)C(C(C)CC)N)C(=O)NC2C(SCC(NC(=O)CNC(=O)C3CCCN3C2=O)C(=O)NC(CCCCN)C(=O)NC4C(SCC(NC(=O)CNC(=O)C(NC(=O)C(NC(=O)C(NC(=O)CNC4=O)C)CC(C)C)CCSC)C(=O)NC(CC(=O)N)C(=O)NC(CCSC)C(=O)NC(CCCCN)C(=O)NC5C(SCC6C(=O)NC(C(=O)NC(CSC(C(C(=O)N6)NC(=O)C(NC5=O)C)C)C(=O)NC(CO)C(=O)NC(C(C)CC)C(=O)NC(CC7=CN=CN7)C(=O)NC(C(C)C)C(=O)NC(=C)C(=O)NC(CCCCN)C(=O)O)CC8=CN=CN8)C)C)C)CC(C)C [Nisin]
fitness, one replicate, main component drawn
Details | first compound 25 µg/mL | first compound 50 µg/mL | first compound 68.57 µg/mL | first compound 100 µg/mL
B. subtilis 168 [1], partner 0.5 µg/mL | 0.435 | 0.0779 | – | 0.108
B. subtilis 168 [1], partner 1 µg/mL | 0.11 | 0.0703 | – | 0.0347
B. subtilis 168 [1], partner 1.25 µg/mL | 0.204 | 0.0476 | – | 0.0457
B. subtilis 168 [1], partner 1.6 µg/mL | 0.1 | 0.0166 | – | 0.0155
B. subtilis 168 [1], partner 2 µg/mL | 0.088 | 0.0708 | – | 0.0438
B. subtilis 168 [1], partner 2.5 µg/mL | 0.0567 | 0.0575 | – | 0.0577
B. subtilis 168 [1], partner 3.2 µg/mL | 0.0289 | 0.0291 | – | 0.0362
B. subtilis 168 [1], partner 4 µg/mL | 0.0315 | 0.0232 | – | 0.0127
B. subtilis 168 [1], partner 5 µg/mL | 0.0493 | 0.0332 | – | 0.0475
B. subtilis 168 [1], partner 6.4 µg/mL | 0.035 | 0.0454 | – | 0.077
B. subtilis 168 [1], partner 8 µg/mL | 0.0084 | 0.0257 | – | 0.0094
B. subtilis 168 [1], partner 16 µg/mL | 0.0263 | 0.037 | – | 0.0142
S. pneumoniae D39V [2], partner 1.6 µg/mL | – | – | 0.001 | –
S. pneumoniae D39V [2], partner 3.2 µg/mL | – | – | 0 | –
S. pneumoniae D39V [2], partner 6.4 µg/mL | – | – | 0 | –

S. pneumoniae D39V [2], main component drawn
Details | fitness
first compound 17.14 µg/mL, partner 1.6 µg/mL | 0.0272
first compound 17.14 µg/mL, partner 3.2 µg/mL | 0.0109
first compound 17.14 µg/mL, partner 6.4 µg/mL | 0.0062
first compound 20 µg/mL, partner 0.4275 µg/mL | 0.827
first compound 20 µg/mL, partner 1.71 µg/mL | 0.063
first compound 34.28 µg/mL, partner 1.6 µg/mL | 0.0162
first compound 34.28 µg/mL, partner 3.2 µg/mL | 0
first compound 34.28 µg/mL, partner 6.4 µg/mL | 0.0091
first compound 40 µg/mL, partner 0.4275 µg/mL | 0.145
first compound 40 µg/mL, partner 0.855 µg/mL | 0.0969
first compound 40 µg/mL, partner 1.71 µg/mL | 0.0997
first compound 80 µg/mL, partner 0.4275 µg/mL | 0.0928
first compound 80 µg/mL, partner 0.855 µg/mL | 0.073
first compound 80 µg/mL, partner 1.71 µg/mL | 0.102

main component drawn
Details | Bliss interaction score
B. subtilis 168 [3] | -0.126
S. aureus DSM 20231 | -0.423
S. aureus Newman | -0.076
S. pneumoniae D39V [4] | -0.175

CN(C)C(=O)C(CCN1CCC(O)(c2ccc(Cl)cc2)CC1)(c1ccccc1)c1ccccc1 [Loperamide] + CCN(CC)CCOC(=O)c1ccc(N)cc1 [Procaine]
fitness
Details | partner 85.5 µg/mL | partner 171 µg/mL | partner 342 µg/mL
B. subtilis 168 [1], first compound 25 µg/mL | 0.801 | 0.84 | 0.763
B. subtilis 168 [1], first compound 50 µg/mL | 0.0504 | 0.0536 | 0.051
B. subtilis 168 [1], first compound 100 µg/mL | 0.0164 | 0.016 | 0.052
S. pneumoniae D39V [2], first compound 17.14 µg/mL | 0.941 | 0.905 | 0.903
S. pneumoniae D39V [2], first compound 34.28 µg/mL | 0.97 | 0.853 | 0.923

fitness, S. pneumoniae D39V [2], one replicate
Details | first compound 20 µg/mL | first compound 40 µg/mL | first compound 68.57 µg/mL | first compound 80 µg/mL
partner 85.5 µg/mL | ≥ 1 | ≥ 1 | 0.919 | 0.999
partner 171 µg/mL | ≥ 1 | ≥ 1 | 0.874 | ≥ 1
partner 342 µg/mL | ≥ 1 | 0.986 | 0.88 | ≥ 1

Details | Bliss interaction score
B. subtilis 168 [3] | -0.0865
S. aureus DSM 20231 | 0.127
S. aureus Newman | 0.0372
S. pneumoniae D39V [4] | -0.0548
